Experimental data reported in PubChem BioAssay (NCI).
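Assay format: 96-well plates, 48-hour exposure. TGI: concentration producing complete growth inhibition.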

How the values were obtained:
Test in all cases: DTP human tumour cell line panel, 48 h
786-0 renal = tested on: 786-0 renal
A549 NSCLC = tested on: A549 NSCLC
ACHN renal = tested on: ACHN renal
CAKI-1 renal = tested on: CAKI-1 renal
DLD-1 colon = tested on: DLD-1 colon
DMS 273 small cell lung = tested on: DMS 273 small cell lung
EKVX NSCLC = tested on: EKVX NSCLC
HCC-2998 colon = tested on: HCC-2998 colon
HCT-116 colon = tested on: HCT-116 colon
HCT-15 colon = tested on: HCT-15 colon
HOP-62 NSCLC = tested on: HOP-62 NSCLC
HOP-92 NSCLC = tested on: HOP-92 NSCLC
HT29 colon = tested on: HT29 colon
IGROV1 ovarian = tested on: IGROV1 ovarian
KM12 colon = tested on: KM12 colon
KM20L2 colon = tested on: KM20L2 colon
LOX IMVI melanoma = tested on: LOX IMVI melanoma
LXFL 529 NSCLC = tested on: LXFL 529 NSCLC
M14 melanoma = tested on: M14 melanoma
M19-MEL melanoma = tested on: M19-MEL melanoma
NCI-H23 lung = tested on: NCI-H23 lung
NCI-H460 lung = tested on: NCI-H460 lung
NCI-H522 lung = tested on: NCI-H522 lung
OVCAR-3 ovarian = tested on: OVCAR-3 ovarian
OVCAR-4 ovarian = tested on: OVCAR-4 ovarian
OVCAR-8 ovarian = tested on: OVCAR-8 ovarian
SF-268 CNS = tested on: SF-268 CNS
SF-295 CNS = tested on: SF-295 CNS
SF-539 CNS = tested on: SF-539 CNS
SK-MEL-2 melanoma = tested on: SK-MEL-2 melanoma
SK-MEL-28 melanoma = tested on: SK-MEL-28 melanoma
SK-MEL-5 melanoma = tested on: SK-MEL-5 melanoma
SN12C renal = tested on: SN12C renal
SNB-19 CNS = tested on: SNB-19 CNS
SNB-78 CNS = tested on: SNB-78 CNS
SW-620 colon = tested on: SW-620 colon
TK-10 renal = tested on: TK-10 renal
U251 CNS = tested on: U251 CNS
UACC-257 melanoma = tested on: UACC-257 melanoma
UACC-62 melanoma = tested on: UACC-62 melanoma
UO-31 renal = tested on: UO-31 renal
A498 renal = tested on: A498 renal
BT-549 breast = tested on: BT-549 breast
CCRF-CEM leukemia = tested on: CCRF-CEM leukemia
COLO 205 colon = tested on: COLO 205 colon
DU-145 prostate = tested on: DU-145 prostate
HL-60(TB) leukemia = tested on: HL-60(TB) leukemia
HS 578T breast = tested on: HS 578T breast
K-562 leukemia = tested on: K-562 leukemia
MALME-3M melanoma = tested on: MALME-3M melanoma
MCF7 breast = tested on: MCF7 breast
MDA-MB-231 breast = tested on: MDA-MB-231 breast
MDA-MB-435 = tested on: MDA-MB-435
MDA-N = tested on: MDA-N
MOLT-4 leukemia = tested on: MOLT-4 leukemia
NCI-H226 lung = tested on: NCI-H226 lung
NCI/ADR-RES ovarian = tested on: NCI/ADR-RES ovarian
OVCAR-5 ovarian = tested on: OVCAR-5 ovarian
PC-3 prostate = tested on: PC-3 prostate
RPMI-8226 leukemia = tested on: RPMI-8226 leukemia
RXF 393 renal = tested on: RXF 393 renal
SK-OV-3 ovarian = tested on: SK-OV-3 ovarian
SNB-75 CNS = tested on: SNB-75 CNS
SR leukemia = tested on: SR leukemia
T-47D breast = tested on: T-47D breast
DMS 114 small cell lung = tested on: DMS 114 small cell lung
HOP-18 NSCLC = tested on: HOP-18 NSCLC
XF 498 CNS = tested on: XF 498 CNS

Measured: TGI

CCNC(=O)c1ccc(C)c(N=NN(C)C)c1
not listed: A498 renal | BT-549 breast | CCRF-CEM leukemia | COLO 205 colon | DU-145 prostate | HL-60(TB) leukemia | HS 578T breast | K-562 leukemia | MALME-3M melanoma | MCF7 breast | MDA-MB-231 breast | MDA-MB-435 | MDA-N | MOLT-4 leukemia | NCI-H226 lung | NCI/ADR-RES ovarian | OVCAR-5 ovarian | PC-3 prostate | RPMI-8226 leukemia | RXF 393 renal | SK-OV-3 ovarian | SNB-75 CNS | SR leukemia | T-47D breast | DMS 114 small cell lung | HOP-18 NSCLC | XF 498 CNS
> 100 µM: all other assays above

O=c1c(F)cn(Cc2c(Cl)cccc2Cl)c(=O)n1Cc1c(Cl)cccc1Cl
> 100 µM: DU-145 prostate | NCI-H226 lung | SNB-19 CNS
not listed: DLD-1 colon | DMS 273 small cell lung | KM20L2 colon | LXFL 529 NSCLC | M19-MEL melanoma | SNB-78 CNS | DMS 114 small cell lung | HOP-18 NSCLC | XF 498 CNS
> 31.6 µM: all other assays above

CCCCCCCCCCCCNC(=S)OC
31.9 µM: HOP-62 NSCLC
34.5 µM: TK-10 renal
45.9 µM: SNB-78 CNS
32.8 µM: HT29 colon | SF-268 CNS
30.6 µM: XF 498 CNS
32.3 µM: HOP-18 NSCLC
24.3 µM: IGROV1 ovarian
9.43 µM: MOLT-4 leukemia
25.7 µM: RXF 393 renal
30.2 µM: SW-620 colon
32.1 µM: M14 melanoma
32.5 µM: UACC-257 melanoma
27.9 µM: HL-60(TB) leukemia
30.7 µM: UACC-62 melanoma
31.2 µM: NCI-H460 lung
17.8 µM: UO-31 renal
32.9 µM: HCC-2998 colon
17.9 µM: DMS 114 small cell lung | SR leukemia
29.5 µM: MALME-3M melanoma | U251 CNS
36 µM: SF-295 CNS
30 µM: KM20L2 colon
31 µM: SK-MEL-5 melanoma
27.3 µM: SN12C renal
34 µM: NCI-H23 lung
39.6 µM: K-562 leukemia
30.9 µM: OVCAR-5 ovarian | SF-539 CNS
29.6 µM: KM12 colon
26 µM: NCI-H522 lung
28.7 µM: LOX IMVI melanoma
27.5 µM: RPMI-8226 leukemia
33 µM: ACHN renal
28.3 µM: CAKI-1 renal
32.7 µM: M19-MEL melanoma
38.6 µM: OVCAR-4 ovarian
27.7 µM: HCT-15 colon
35 µM: A549 NSCLC | SK-OV-3 ovarian
29.3 µM: 786-0 renal | DMS 273 small cell lung | HCT-116 colon
37.9 µM: SK-MEL-28 melanoma
31.6 µM: A498 renal
28.9 µM: DLD-1 colon
20.1 µM: HOP-92 NSCLC
29.7 µM: OVCAR-8 ovarian
36.6 µM: EKVX NSCLC
45 µM: SNB-75 CNS
31.1 µM: SK-MEL-2 melanoma
28.2 µM: LXFL 529 NSCLC
69.8 µM: SNB-19 CNS
33.3 µM: CCRF-CEM leukemia

CCOC(=O)C1Sc2ccccc2N=C1C (stereo unspecified)
not listed: CAKI-1 renal | DMS 273 small cell lung | M14 melanoma | SK-MEL-5 melanoma | UACC-62 melanoma | BT-549 breast | CCRF-CEM leukemia | DU-145 prostate | HS 578T breast | MCF7 breast | MDA-MB-231 breast | MDA-MB-435 | MDA-N | NCI/ADR-RES ovarian | PC-3 prostate | SK-OV-3 ovarian | T-47D breast
> 100 µM: all other assays above
